From PubChem BioAssay AID1918931 (Molecular Pharmacology Branch, DTP, NCI, 2023)

Tested on: 138582-337-R-J1-PDC complex spheroid viability
Test: Anticancer human tumor 138582-337-R-J1-PDC patient-derived Merkel cell tumor cell line growth inhibition
Conditions: for IC50: curve of first compound; for viability, T/C: stronger effect = lower value
From the text: Multicellular complex tumor spheroid response to LSD1 Inhibitor Iadademstat in combination with a variety of drugs and investigational agents in selected tumor cell lines
The current study was undertaken to assess response to LSD1 inhibitors in combination with standard-of-care drugs and investigational agents in solid tumor complex spheroid models as well as in the K-562 leukemia. Complex spheroids include a stromal component modeled by human endothelial cells (HUVEC) and fibroblasts modeled by human mesenchymal stem cells (MSCs). The concentration ranges selected for each drug and investigational agent were based upon clinically achievable concentrations if the clinical Cmax of the agent was known.
Compounds. The drugs and investigational agents used in this study are listed on Table 1. All of the agents used, including staurosporine (NSC755774) and gemcitabine (NSC613327), were obtained from the Developmental Therapeutics Program, NCI. FDA-approved anticancer drugs are available from the NCI at http://dtp.nci.nih.gov/branches/dscb/oncology_drugset_explanation.html. Drugs and investigational agents were >95% pure by proton nuclear magnetic resonance (NMR) and liquid chromatography/mass spectrometry (LC/MS). Stock solutions were prepared at 400x in DMSO, stored at -70 degrees C, and diluted in fresh medium prior to their use. The final concentration of DMSO in cell culture wells never exceeded 0.25% (v/v). The FDA-approved anticancer drug set is available from the Developmental Therapeutics Program at https://dtp.cancer.gov/organization/dscb/obtaining/available_plates.htm. All drugs and investigational agents were tested over a range starting from a high concentration at or near the clinical Cmax and decreasing in half-log increments. If the clinical Cmax for an agent had not been determined, the highest concentration tested was 10 microM.
Cell Lines. The patient-derived cancer cell (PDC) lines: 292921-168-R-J2-PDC, K24384-001-R-PDC, and 521955-158-R2-J5-PDC pancreatic carcinomas, 556581-035-R-J1 ovarian carcinoma, 324938-238-R-J1-PDC, 855422-203-R-J1-PDC and 883617-216-R-J1-PDC urothelial bladder carcinomas, 743489-274-T-PDC renal cell carcinoma, 138582-R-J1 Merkel cell tumor, K60290-347-R-J1 and K57222-313-R-J1-PDC glioblastomas, 653999-131-R-J2-PDC, LG0703-F948-PDC, and 349418-098-R-PDC non-small cell lung carcinomas, 885512-296-R-J2-PDC, 171881-019-R-J1-PDC breast carcinomas and 186277-243-T-J2-PDC and 233499-124-R-J2-PDC colon carcinomas were obtained from the NCI Patient-Derived Models Repository (PDMR, https://pdmr.cancer.gov). The established cell lines NCI/ADR-RES (RRID:CVCL_14520 and OVCAR-5 (RRID:CVCL_1628) ovarian carcinomas, 786-O (RRID:CVCL_1051) and A498 (RRID:CVCL_A498) renal cell carcinoma, NCI-H211 (ATCC, cat. CRL-5824; RRID:CVCL_1529), NCI-H196 (ATCC, cat. CRL-5823, RRID:CVCL_1509), SW 1271 (ATCC, cat. CRL-2177, RRID:CVCL_1716) and NCI-H1876 (ATCC, cat. CRL-5902, RRID:CVCL_1503) small cell lung carcinomas, MDA-MB-231 (RRID:CVCL_0062) and MDA-MB-468 (RRID:CVCL_0419)breast carcinomas (10-12). Pooled donor human umbilical vein endothelial cells (HUVEC, Lonza, cat. CC-2519) and human mesenchymal stem cells (hMSC, Lonza, cat. PT-2501) were purchased from Lonza (Walkersville, MD).
Cell Culture. All cells were maintained in an incubator at 37 degrees C and 5% CO2 with 95% humidity. The PDC lines were cultured according to standard operating procedures established by the NCI PDMR (https://pdmr.cancer.gov). Briefly all PDCs were thawed and cultured in Matrigel-coated flasks prepared with a working solution of 1X Ham's F-12 nutrient mix, without supplementation (Invitrogen, Waltham, MA, cat. 11765054), 100 U/mL penicillin-streptomycin (Invitrogen, cat. 15140122), and 2.5% Matrigel (Corning Inc., Corning, NY, cat. 354248) for the first three passages. […]
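Further: spheroids exposed to agents for 7 days.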
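Wherever viability, T/C is given: 100% = DMSO vehicle control viability.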

Q: What does the source list for `CCc1c2c(nc3ccc(O)cc13)-c1cc3c(c(=O)n1C2)COC(=O)[C@]3(O)CC` + NC1CC1c1ccc(-c2cccc(O)c2)cc1?
A: IC50 (second compound 0.1 µM): 4.56 nM; IC50 (second compound 0.316 µM): 2.69 nM; IC50 (second compound 1 µM): 3.28 nM; IC50 (second compound 3.16 µM): 4.01 nM; IC50 (second compound 10 µM): 5.59 nM; viability, T/C (second compound 0.1 µM, first compound 0.000949 µM): 64.6%; viability, T/C (second compound 0.1 µM, first compound 0.003 µM): 65.2%; viability, T/C (second compound 0.1 µM, first compound 0.00949 µM): 23.9%; viability, T/C (second compound 0.1 µM, first compound 0.03 µM): 0.24%; viability, T/C (second compound 0.1 µM, first compound 0.0949 µM): 0.19%; viability, T/C (second compound 0.1 µM, first compound 0.3 µM): 0.2%; viability, T/C (second compound 0.316 µM, first compound 0.000949 µM): 73.8%; viability, T/C (second compound 0.316 µM, first compound 0.003 µM): 45.9%; viability, T/C (second compound 0.316 µM, first compound 0.00949 µM): 23.5%; viability, T/C (second compound 0.316 µM, first compound 0.03 µM): 0.59%; viability, T/C (second compound 0.316 µM, first compound 0.0949 µM): 0.13%; viability, T/C (second compound 0.316 µM, first compound 0.3 µM): 0.24%; viability, T/C (second compound 1 µM, first compound 0.000949 µM): 57.1%; viability, T/C (second compound 1 µM, first compound 0.003 µM): 51.3%; viability, T/C (second compound 1 µM, first compound 0.00949 µM): 23.9%; viability, T/C (second compound 1 µM, first compound 0.03 µM): 0.3%; viability, T/C (second compound 1 µM, first compound 0.0949 µM): 0.16%; viability, T/C (second compound 1 µM, first compound 0.3 µM): 0.21%; viability, T/C (second compound 3.16 µM, first compound 0.000949 µM): 78%; viability, T/C (second compound 3.16 µM, first compound 0.003 µM): 57.7%; viability, T/C (second compound 3.16 µM, first compound 0.00949 µM): 25.3%; viability, T/C (second compound 3.16 µM, first compound 0.03 µM): 0.56%; viability, T/C (second compound 3.16 µM, first compound 0.0949 µM): 0.14%; viability, T/C (second compound 3.16 µM, first compound 0.3 µM): 0.23%; viability, T/C (second compound 10 µM, first compound 0.000949 µM): 82.4%; viability, T/C (second compound 10 µM, first compound 0.003 µM): 68%; viability, T/C (second compound 10 µM, first compound 0.00949 µM): 34.7%; viability, T/C (second compound 10 µM, first compound 0.03 µM): 0.44%; viability, T/C (second compound 10 µM, first compound 0.0949 µM): 0.21%; viability, T/C (second compound 10 µM, first compound 0.3 µM): 0.33%
